Columns and labels:
[1] = test system: patients with bipolar II disorder; test: Continuous Performance Test (Conner's CPT II), sustained attention; format: in vivo, human; details: 12 weeks versus baseline, result in words
From the text: The present invention recruited patients diagnosed with bipolar II disorder (BD-II). The patients were diagnosed by psychiatrists using the improved Chinese version of the Schedule of Affective Disorder and Schizophrenia-Life Time (SADS-L) with good inter-rater reliability and the Diagnostic and Statistical Manual of Mental Disorders, Fourth Edition, Text Revision (DSM-IV-TR) to confirm that the patient meets the integration points of bipolar II disorder in the DSM-IV-TR.
The purpose of the test of the present invention was to test whether dextromethorphan (DM) and sodium valproate (trade name: Depakine) could improve the cognitive function of patients. Therefore, the patients with bipolar II disorder in the present invention were divided into two groups: one group was the patients taking dextromethorphan and sodium valproate together (BDDM), and the other group was the patients taking sodium valproate and placebo (BDPl). Before the patients of the two group took the drug, the present invention first used the following evaluation test to perform a basic evaluation of the patients of the two groups.
The present invention used the computer version of Conner's CPT II 20 which was used to detect the sustained attention of the patients. In the reliability of Conner's CPT II, the split-half reliability ranged from 0.66 to 0.95, and the retest reliability after three months was […]. […]

[2] = Drug concentration in the plasma of the patients after the end of the treatment; details: human, in vivo, after 12 weeks of 1 to 30 mg dextromethorphan per day
Method: Both groups were treated with drug. The course of treatment for the group taking dextromethorphan and sodium valproate (BDDM group) was 1 to 30 mg of dextromethorphan and 500 to 2500 mg of sodium valproate per day for 12 weeks. The course of treatment for the group taking sodium valproate and placebo (BDPl group) was 500-2500 mg of sodium valproate and placebo per day for 12 weeks. After the end of the treatment, the concentrations of dextromethorphan in the plasma of the patients were about 10-50 ng/ml (0.05-0.2 μM), and the concentrations of sodium valproate in the plasma were about 50-100 μg/dl.

For `COc1ccc2c(c1)[C@]13CCCC[C@@H]1[C@H](C2)N(C)CC3` [dextromethorphan], the “sustained attention (scores of CPT) after the end of the course of treatment” value [1] was “improvement in sustained attention was due to the efficacy of dextromethorphan”, the concentration at 12 weeks [2] was 10 to 50 ng/mL and the concentration at 12 weeks ([2]; value in brackets) was 50 to 200 nM.

Reference: patent US20250375437A1, “METHODS FOR IMPROVING COGNITIVE FUNCTION” (priority 2024, published 2025)
